Source: US20230066011A1, “PYRROLOPYRIMIDINE DERIVATIVE, AND PHARMACEUTICAL COMPOSITION FOR PREVENTING OR TREATING PROTEIN KINASE-RELATED DISEASE COMPRISING SAME AS ACTIVE INGREDIENT” (VORONOI CO., LTD., priority 2019, published 2023)

Assays:
Type in all cases: binding
CLK1 = biological target: T1, CLK1 (Homo sapiens, UniProt P49759); assay: ScanMAX Kinase analysis panel, CLK1; conditions: 1 μM in DMSO; <35% considered inhibitory; read-out: percent control (% control), CLK1
T1 construct: purchased DiscoverX Corp. (ScanMAX Kinase analysis panel, service)
T1 sequence (P49759 whole entry): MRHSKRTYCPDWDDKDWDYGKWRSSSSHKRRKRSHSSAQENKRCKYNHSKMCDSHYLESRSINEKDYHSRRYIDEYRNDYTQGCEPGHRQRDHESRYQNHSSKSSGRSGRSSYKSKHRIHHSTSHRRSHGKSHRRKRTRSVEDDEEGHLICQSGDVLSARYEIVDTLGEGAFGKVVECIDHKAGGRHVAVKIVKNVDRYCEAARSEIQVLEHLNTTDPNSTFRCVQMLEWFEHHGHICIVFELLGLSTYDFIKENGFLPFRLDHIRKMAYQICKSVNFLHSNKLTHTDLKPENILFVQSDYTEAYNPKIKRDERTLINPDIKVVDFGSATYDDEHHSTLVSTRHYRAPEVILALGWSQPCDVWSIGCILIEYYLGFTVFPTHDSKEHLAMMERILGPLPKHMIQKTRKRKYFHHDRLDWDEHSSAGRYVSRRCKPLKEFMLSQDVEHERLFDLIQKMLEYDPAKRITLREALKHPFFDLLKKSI
Protocol: (§1) Specifically, the enzyme (kinase) selectivity of Example compounds 238, 361, 411, 157, 161, 228, and 158 selected from the Example compounds of the present invention was determined by commissioning DiscoverX Corp., and an experiment was performed using a ScanMAX™ Kinase analysis panel. In this case, a concentration of the drug with which the enzymes were treated was 1 μM in DMSO, and the percent control (% control) was defined in the same manner as in the following Expression 1.
(§2) (Example Compound−Positive Control)/(Negative Control−Positive Control)×100 [Expression 1]
(§3) wherein the positive control represents a compound having a percent control of 0%, and the negative control represents DMSO having a percent control of 100%. For the enzyme selectivity of the present invention, it was considered that the compound has an inhibitory activity on each of the enzymes when the percent control for the corresponding enzyme was <35% (i. e., less than 35%).

GAK = biological target: T2, GAK (Homo sapiens, UniProt O14976); assay: ScanMAX Kinase analysis panel, GAK; conditions: 1 μM in DMSO; <35% considered inhibitory; read-out: percent control (% control), GAK
T2 construct: purchased DiscoverX Corp. (ScanMAX Kinase analysis panel, service)
T2 sequence (O14976 1-1311): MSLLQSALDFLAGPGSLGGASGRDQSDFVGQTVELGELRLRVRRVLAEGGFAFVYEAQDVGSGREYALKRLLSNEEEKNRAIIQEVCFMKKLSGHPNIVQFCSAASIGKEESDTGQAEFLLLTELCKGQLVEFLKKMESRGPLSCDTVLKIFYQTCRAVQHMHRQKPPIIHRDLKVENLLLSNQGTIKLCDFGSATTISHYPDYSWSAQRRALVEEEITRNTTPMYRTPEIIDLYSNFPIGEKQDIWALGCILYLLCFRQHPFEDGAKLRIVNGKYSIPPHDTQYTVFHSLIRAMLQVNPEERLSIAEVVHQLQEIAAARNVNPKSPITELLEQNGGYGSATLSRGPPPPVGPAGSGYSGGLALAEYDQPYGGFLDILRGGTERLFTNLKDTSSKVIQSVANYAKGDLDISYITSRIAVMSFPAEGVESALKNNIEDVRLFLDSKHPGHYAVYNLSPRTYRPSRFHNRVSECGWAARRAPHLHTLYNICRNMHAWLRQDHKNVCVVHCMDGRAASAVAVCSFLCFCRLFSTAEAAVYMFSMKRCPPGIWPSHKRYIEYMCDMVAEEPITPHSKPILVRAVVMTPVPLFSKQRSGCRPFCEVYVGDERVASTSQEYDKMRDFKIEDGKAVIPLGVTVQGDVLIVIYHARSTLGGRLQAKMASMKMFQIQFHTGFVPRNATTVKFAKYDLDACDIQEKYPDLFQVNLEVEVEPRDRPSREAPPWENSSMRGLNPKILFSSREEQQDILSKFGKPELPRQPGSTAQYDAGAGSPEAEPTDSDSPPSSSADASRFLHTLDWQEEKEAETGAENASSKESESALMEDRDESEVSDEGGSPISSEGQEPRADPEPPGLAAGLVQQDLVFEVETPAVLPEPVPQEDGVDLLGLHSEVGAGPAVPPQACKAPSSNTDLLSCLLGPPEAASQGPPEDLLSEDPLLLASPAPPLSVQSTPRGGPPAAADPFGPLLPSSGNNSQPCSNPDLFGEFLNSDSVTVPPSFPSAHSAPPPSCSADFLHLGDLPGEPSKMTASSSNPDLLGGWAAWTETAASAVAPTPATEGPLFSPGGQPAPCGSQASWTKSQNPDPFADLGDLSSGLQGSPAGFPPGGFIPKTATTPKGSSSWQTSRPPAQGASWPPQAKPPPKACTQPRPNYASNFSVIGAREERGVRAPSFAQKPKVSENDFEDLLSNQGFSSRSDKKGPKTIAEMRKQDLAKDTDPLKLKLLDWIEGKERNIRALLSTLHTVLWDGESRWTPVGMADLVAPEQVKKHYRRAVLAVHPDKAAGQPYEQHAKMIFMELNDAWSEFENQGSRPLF
Protocol: as §1, §2, §3

PLK4 = biological target: T3, PLK4 (Homo sapiens, UniProt O00444); assay: ScanMAX Kinase analysis panel, PLK4; conditions: 1 μM in DMSO; <35% considered inhibitory; read-out: percent control (% control), PLK4
T3 construct: purchased DiscoverX Corp. (ScanMAX Kinase analysis panel, service)
T3 sequence (O00444 1-970): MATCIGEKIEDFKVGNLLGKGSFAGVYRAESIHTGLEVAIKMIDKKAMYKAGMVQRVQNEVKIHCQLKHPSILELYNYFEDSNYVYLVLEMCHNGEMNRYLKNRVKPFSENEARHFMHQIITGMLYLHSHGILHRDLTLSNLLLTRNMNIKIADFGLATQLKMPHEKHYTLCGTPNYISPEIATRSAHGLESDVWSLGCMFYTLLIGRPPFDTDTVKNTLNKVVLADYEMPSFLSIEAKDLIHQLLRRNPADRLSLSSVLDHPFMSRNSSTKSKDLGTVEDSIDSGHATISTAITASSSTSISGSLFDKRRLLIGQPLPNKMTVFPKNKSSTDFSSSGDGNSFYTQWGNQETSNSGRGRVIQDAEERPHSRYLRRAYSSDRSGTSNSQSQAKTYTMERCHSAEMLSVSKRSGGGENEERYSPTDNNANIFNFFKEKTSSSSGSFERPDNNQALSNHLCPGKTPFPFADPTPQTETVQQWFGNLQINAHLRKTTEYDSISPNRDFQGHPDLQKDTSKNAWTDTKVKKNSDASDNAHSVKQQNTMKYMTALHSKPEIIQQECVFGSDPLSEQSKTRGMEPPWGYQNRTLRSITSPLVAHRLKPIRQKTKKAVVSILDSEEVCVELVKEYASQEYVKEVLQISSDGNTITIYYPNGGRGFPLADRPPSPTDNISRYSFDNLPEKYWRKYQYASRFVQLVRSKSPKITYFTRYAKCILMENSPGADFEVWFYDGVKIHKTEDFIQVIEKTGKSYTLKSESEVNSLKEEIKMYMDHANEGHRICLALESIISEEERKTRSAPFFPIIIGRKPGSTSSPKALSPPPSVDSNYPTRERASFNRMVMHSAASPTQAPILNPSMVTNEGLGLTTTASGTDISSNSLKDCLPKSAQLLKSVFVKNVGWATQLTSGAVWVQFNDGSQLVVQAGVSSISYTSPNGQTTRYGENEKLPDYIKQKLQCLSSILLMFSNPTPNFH
Protocol: as §1, §2, §3

LRRK2 = LRRK2 (Homo sapiens, UniProt Q5S007); assay: ScanMAX Kinase analysis panel, LRRK2; parameters: purchased DiscoverX Corp. (ScanMAX Kinase analysis panel, service); conditions: 1 μM in DMSO; <35% considered inhibitory; read-out: percent control (% control), LRRK2
Sequence of LRRK2 (Q5S007 whole entry): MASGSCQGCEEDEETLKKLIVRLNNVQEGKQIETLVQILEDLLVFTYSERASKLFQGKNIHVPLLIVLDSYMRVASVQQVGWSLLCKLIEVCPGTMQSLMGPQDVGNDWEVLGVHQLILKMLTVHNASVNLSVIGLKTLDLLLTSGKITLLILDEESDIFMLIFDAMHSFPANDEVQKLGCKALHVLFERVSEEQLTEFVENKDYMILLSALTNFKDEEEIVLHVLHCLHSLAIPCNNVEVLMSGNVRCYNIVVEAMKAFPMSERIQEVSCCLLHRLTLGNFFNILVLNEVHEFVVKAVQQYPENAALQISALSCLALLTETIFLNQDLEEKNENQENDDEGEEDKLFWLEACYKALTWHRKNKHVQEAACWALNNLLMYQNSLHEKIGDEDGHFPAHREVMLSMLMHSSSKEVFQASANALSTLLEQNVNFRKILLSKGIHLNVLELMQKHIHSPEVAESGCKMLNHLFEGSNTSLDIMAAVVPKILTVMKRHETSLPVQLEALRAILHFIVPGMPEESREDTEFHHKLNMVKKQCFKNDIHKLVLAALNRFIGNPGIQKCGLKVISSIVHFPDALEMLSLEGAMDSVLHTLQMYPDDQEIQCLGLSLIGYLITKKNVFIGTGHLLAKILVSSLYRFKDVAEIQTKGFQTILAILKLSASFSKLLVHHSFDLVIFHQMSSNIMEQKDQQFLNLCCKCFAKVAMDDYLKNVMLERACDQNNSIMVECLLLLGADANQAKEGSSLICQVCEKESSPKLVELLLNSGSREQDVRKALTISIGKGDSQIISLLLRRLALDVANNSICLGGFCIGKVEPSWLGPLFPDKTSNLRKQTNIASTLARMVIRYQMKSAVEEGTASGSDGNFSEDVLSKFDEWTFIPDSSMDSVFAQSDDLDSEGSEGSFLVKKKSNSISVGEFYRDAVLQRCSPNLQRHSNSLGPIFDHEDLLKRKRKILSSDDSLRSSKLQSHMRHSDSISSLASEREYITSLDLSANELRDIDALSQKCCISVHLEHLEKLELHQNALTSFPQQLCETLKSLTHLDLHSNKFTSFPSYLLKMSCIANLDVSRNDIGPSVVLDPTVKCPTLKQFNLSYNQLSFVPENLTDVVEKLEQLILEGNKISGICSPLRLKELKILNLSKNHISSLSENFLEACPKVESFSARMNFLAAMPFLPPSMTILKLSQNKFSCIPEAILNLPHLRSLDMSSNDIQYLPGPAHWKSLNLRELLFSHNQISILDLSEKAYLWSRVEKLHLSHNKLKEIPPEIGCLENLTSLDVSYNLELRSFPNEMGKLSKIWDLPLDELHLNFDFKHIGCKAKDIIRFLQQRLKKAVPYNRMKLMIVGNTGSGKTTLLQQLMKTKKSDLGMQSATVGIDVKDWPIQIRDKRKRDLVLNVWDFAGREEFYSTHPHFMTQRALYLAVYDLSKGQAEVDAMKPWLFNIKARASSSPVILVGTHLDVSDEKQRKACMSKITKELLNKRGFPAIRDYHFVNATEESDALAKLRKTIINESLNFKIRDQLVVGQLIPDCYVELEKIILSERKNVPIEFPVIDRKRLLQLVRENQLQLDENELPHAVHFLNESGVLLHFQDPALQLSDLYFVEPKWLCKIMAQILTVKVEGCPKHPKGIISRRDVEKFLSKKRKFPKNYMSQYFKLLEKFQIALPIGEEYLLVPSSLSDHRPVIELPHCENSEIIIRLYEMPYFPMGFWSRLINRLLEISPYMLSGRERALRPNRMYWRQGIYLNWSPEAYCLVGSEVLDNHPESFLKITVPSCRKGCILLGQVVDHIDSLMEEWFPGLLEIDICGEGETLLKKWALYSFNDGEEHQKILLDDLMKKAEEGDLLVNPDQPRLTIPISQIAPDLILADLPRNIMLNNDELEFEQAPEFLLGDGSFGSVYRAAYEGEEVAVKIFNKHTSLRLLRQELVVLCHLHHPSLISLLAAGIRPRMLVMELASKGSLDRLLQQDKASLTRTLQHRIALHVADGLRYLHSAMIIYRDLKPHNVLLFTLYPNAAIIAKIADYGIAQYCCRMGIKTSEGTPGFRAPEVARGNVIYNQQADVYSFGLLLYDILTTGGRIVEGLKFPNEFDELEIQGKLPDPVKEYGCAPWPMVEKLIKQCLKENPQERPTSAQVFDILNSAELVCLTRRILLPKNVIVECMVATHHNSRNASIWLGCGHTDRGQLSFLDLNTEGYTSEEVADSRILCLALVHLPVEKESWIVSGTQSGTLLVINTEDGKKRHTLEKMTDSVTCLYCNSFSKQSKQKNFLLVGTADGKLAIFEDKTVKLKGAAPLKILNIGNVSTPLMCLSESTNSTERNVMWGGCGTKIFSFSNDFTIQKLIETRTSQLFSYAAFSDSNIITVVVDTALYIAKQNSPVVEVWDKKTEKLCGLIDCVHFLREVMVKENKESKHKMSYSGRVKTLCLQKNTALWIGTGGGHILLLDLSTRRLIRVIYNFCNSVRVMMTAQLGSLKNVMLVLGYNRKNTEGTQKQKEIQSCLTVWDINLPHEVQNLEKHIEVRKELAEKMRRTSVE
Protocol: as §1, §2, §3

DYRK1A = biological target: T4, DYRK1A (Homo sapiens, UniProt Q13627); assay: ScanMAX Kinase analysis panel, DYRK1A; conditions: 1 μM in DMSO; <35% considered inhibitory; read-out: percent control (% control), DYRK1A
T4 construct: purchased DiscoverX Corp. (ScanMAX Kinase analysis panel, service)
Protocol: as §1, §2, §3

A remaining binding at 1 µM (CLK1) of 6.1%, a remaining binding at 1 µM (GAK) of 3% and a remaining binding at 1 µM (PLK4) of 3.2% were found for O=C(c1ccc(Nc2nc(C3CC3)c3c(C(F)(F)F)c[nH]c3n2)c2c1OCCO2)N1CCC(N2CCOCC2)CC1 [Example 228, (8-((4-cyclopropyl-5-(trifluoromethyl)-7H-pyrrolo[2,3-d]pyrimidin-2-yl)amino)-2,3-dihydrobenzo[b][1,4]dioxin-5-yl)(4-morpholinopiperidin-1-yl)methanone] in this work. It also gave a remaining binding at 1 µM (LRRK2) of 0.3% and a remaining binding at 1 µM (DYRK1A) of 0.5%.

A remaining binding at 1 µM (CLK1) of 6.7%, a remaining binding at 1 µM (GAK) of 4.2% and a remaining binding at 1 µM (PLK4) of 10% were found for CNc1nc(Nc2ccc(S(=O)(=O)N3CCC(N4CCOCC4)CC3)cc2OC)nc2[nH]cc(C(F)(F)F)c12 [Example 157, N^2-(2-methoxy-4-((4-morpholinopiperidin-1-yl)sulfonyl)phenyl)-N^4-methyl-5-(trifluoromethyl)-7H-pyrrolo[2,3-d]pyrimidine-2,4-diamine 2,2,2-trifluoroacetate] in this work. The remaining binding at 1 µM (LRRK2) was 0.7% and the remaining binding at 1 µM (DYRK1A) was 0.05%.

A remaining binding at 1 µM (CLK1) of 1%, a remaining binding at 1 µM (GAK) of 21% and a remaining binding at 1 µM (PLK4) of 26% were found for CCNc1nc(Nc2ccc(S(=O)(=O)N3CCC(N4CCOCC4)CC3)cc2OC)nc2[nH]cc(C(F)(F)F)c12 [Example 158, N^4-ethyl-N^2-(2-methoxy-4-((4-morpholinopiperidin-1-yl)sulfonyl)phenyl)-5-(trifluoromethyl)-7H-pyrrolo[2,3-d]pyrimidine-2,4-diamine 2,2,2-trifluoroacetate] in this work. The remaining binding at 1 µM (LRRK2) was 0% and the remaining binding at 1 µM (DYRK1A) was 0.75%.

A remaining binding at 1 µM (CLK1) of 7.2%, a remaining binding at 1 µM (GAK) of 2.4% and a remaining binding at 1 µM (PLK4) of 23% were found for CNc1nc(Nc2ccc(P3(=O)CCN(C4CC4)CC3)cc2OC)nc2[nH]cc(C(F)(F)F)c12 [Example 411, 1-cyclopropyl-4-(3-methoxy-4-((4-(methylamino)-5-(trifluoromethyl)-7H-pyrrolo[2,3-d]pyrimidin-2-yl)amino)phenyl)-1,4-azaphosphinane-4-oxide] in this work. It also gave a remaining binding at 1 µM (LRRK2) of 1.9% and a remaining binding at 1 µM (DYRK1A) of 0.2%.

A remaining binding at 1 µM (CLK1) of 16%, a remaining binding at 1 µM (GAK) of 3.1% and a remaining binding at 1 µM (PLK4) of 7.8% were found for CNc1nc(Nc2ccc(C(=O)N3CCC(N4CCOCC4)CC3)c3c2OCCO3)nc2[nH]cc(C(F)(F)F)c12 [Example 238, (8-((4-(methylamino)-5-(trifluoromethyl)-7H-pyrrolo[2,3-d]pyrimidin-2-yl)amino)-2,3-dihydrobenzo[b][1,4]dioxin-5-yl)(4-morpholinopiperidin-1-yl)methanone] in this work. For the same compound, the remaining binding at 1 µM (LRRK2) was 0.45% and the remaining binding at 1 µM (DYRK1A) was 0.25%.

A remaining binding at 1 µM (CLK1) of 5.5%, a remaining binding at 1 µM (GAK) of 4% and a remaining binding at 1 µM (PLK4) of 11% were found for CCCNc1nc(Nc2ccc(S(=O)(=O)N3CCC(N4CCOCC4)CC3)cc2OC)nc2[nH]cc(C(F)(F)F)c12 [Example 161, N^2-(2-methoxy-4-((4-morpholinopiperidin-1-yl)sulfonyl)phenyl)-N^4-propyl-5-(trifluoromethyl)-7H-pyrrolo[2,3-d]pyrimidine-2,4-diamine] in this work. The remaining binding at 1 µM (LRRK2) was 1% and the remaining binding at 1 µM (DYRK1A) was 2%.

A remaining binding at 1 µM (CLK1) of 2.4%, a remaining binding at 1 µM (GAK) of 2.7% and a remaining binding at 1 µM (PLK4) of 0.3% were found for C=CCNc1nc(Nc2ccc(S(=O)(=O)N3CCC(N4CCOCC4)CC3)cc2OC)nc2[nH]cc(C#N)c12 [Example 361, 4-(allylamino)-2-((2-methoxy-4-((4-morpholino-piperidin-1-yl)sulfonyl)phenyl)amino)-7H-pyrrolo[2,3-d]pyrimidine-5-carbonitrile] in this work. For the same compound, the remaining binding at 1 µM (LRRK2) was 0% and the remaining binding at 1 µM (DYRK1A) was 2.6%.
